Laboratory results from PMC6854577, “Quantitation of Thyroid Hormone Binding to Anti-Thyroxine Antibody Fab Fragment by Native Mass Spectrometry” (ACS Omega, 2019).
Where “and” joins values, the source holds several entries; their conditions need not be identical. Equal entries are not always repeated.

Legend:
[1] = biological target: anti-T4 antibody Fab fragment; assay: Native MS (ESI FT-ICR) ligand competition with T2 as low-affinity reference ligand; assay type: binding, mouse; details: for binding affinity (in words): native MS
Procedure: All mass spectrometric experiments were performed by using a 12-T Bruker solariX XR Fourier transform ion cyclotron resonance (FT-ICR) instrument (Bruker Daltonics, Bremen, Germany) equipped with an electrospray ionization (ESI) source (Apollo-II). Mass spectra were obtained in a positive ion mode, and the samples were directly infused to the ion source at a flow rate of 2 μL min^–1. Dry nitrogen was used as nebulizing (4.0 L min^–1) and drying (80 °C, 1.0 bar) gas. The ions were accumulated in the hexapole ion trap for 3.5 s and then transferred to the dynamically harmonized ICR cell (Paracell) for trapping, excitation, and detection. The time of flight was set to 3.5 ms. All other instrumental parameters were carefully adjusted to preserve noncovalent interactions in the gas phase. […] The mass spectra were externally calibrated by the ESI Tuning mix (part no. G2431A; Agilent Technologies, Santa Clara, CA). The mass spectra were acquired from m/z 1500 to 5000. The data acquisition was attained by ftmsControl 2.1 software and further processed and analyzed by DataAnalysis 4.2 SR1 software. […]
To determine the binding affinities for the other ligands, ligand competition experiments were performed.[25],[26] Briefly, T2 was used as the “low-affinity” reference ligand, whose accurate Kd value was determined earlier by the direct ligand titration. The two ligands, competing for the same binding site in anti-T4 Fab, were mixed at the appropriate concentrations (determined earlier by initial screening experiments) with the protein at a fixed concentration of 0.1 μM. Ten replicates were measured for each ligand pair from three different samples.
A mathematical model to calculate Kd values from the competition experiments was as follows: For L and Lref, competing for a single binding site in P, the two equilibrium reactions are [drawing 2] [drawing 3] where P is the receptor protein, L is the ligand, and Lref is the “low-affinity” reference ligand. Briefly, the intensity ratio (R) of the total abundance of the ligand-bound protein (PL) and free protein (P) was calculated for each spectrum. The affinity measurement for the “low-affinity” ligand (Lref) was performed by a direct titration method. The individual Kd values for L and Lref are derived as [drawing 4] 2 [drawing 5] 3 where the brackets represent equilibrium concentrations of L, Lref, P, PL, and PLref. The mass balance equations at equilibrium are [drawing 6] 4 [drawing 7] 5 [drawing 8] 6 where [P]total, [L]total, and [Lref]total are the total protein, ligand, and reference ligand concentrations, respectively.
At equilibrium, [P] is the same for both ligands, and thus, eqs. […] were simplified to [drawing 9] 7
The ESI-MS spectrum directly provides normalized intensities (“concentration coefficients”) i(P), i(PL), and i(PLref), such that their sum equals 1, which can then be used to calculate equilibrium concentrations by eqs 8, 9, and 10: [drawing 10] 8 [drawing 11] 9 [drawing 12] 10 These calculations are valid if one assumes that the ionization and ion transmission efficiencies for P, PL, and PLref are the same (they are if mL ≈ mLref ≪ mP, which is true in this case), and there is no complex dissociation upon ionization/desolvation stages (i.e., careful adjustments of instrumental parameters). The intensities should be calculated as integrated sums of different charge states to avoid any bias resulting from different CSDs between the free and bound proteins. The free ligand concentrations, [L] and [Lref], can be obtained from eqs 5 and 6. The equilibrium concentrations [L], [Lref], [PL], and [PLref] as well as the predetermined/known Kd(Lref) can be inserted into eq 7 to calculate Kd(L).

THRα1 = biological target: THRα1; parameters: method as in PMID 15466465; details: cited from earlier work
anti-T4 Fab = test system: anti-T4 Fab; parameters: method as in PMID 9095353, PMID 9460543; details: SPR, cited from earlier work
[2] = biological target: anti-T4 antibody Fab fragment; assay: Native MS initial ligand screening (approximate affinities, stoichiometry); assay type: binding, mouse; details: 0.1 μM Fab; for approximate binding affinity: initial ligand screening
Procedure: All mass spectrometric experiments were performed by using a 12-T Bruker solariX XR Fourier transform ion cyclotron resonance (FT-ICR) instrument (Bruker Daltonics, Bremen, Germany) equipped with an electrospray ionization (ESI) source (Apollo-II). Mass spectra were obtained in a positive ion mode, and the samples were directly infused to the ion source at a flow rate of 2 μL min^–1. Dry nitrogen was used as nebulizing (4.0 L min^–1) and drying (80 °C, 1.0 bar) gas. The ions were accumulated in the hexapole ion trap for 3.5 s and then transferred to the dynamically harmonized ICR cell (Paracell) for trapping, excitation, and detection. The time of flight was set to 3.5 ms. All other instrumental parameters were carefully adjusted to preserve noncovalent interactions in the gas phase. […] The mass spectra were externally calibrated by the ESI Tuning mix (part no. G2431A; Agilent Technologies, Santa Clara, CA). The mass spectra were acquired from m/z 1500 to 5000. The data acquisition was attained by ftmsControl 2.1 software and further processed and analyzed by DataAnalysis 4.2 SR1 software. All native MS experiments were performed in 20 mM aqueous ammonium acetate (pH 6.9) solution.
First, the approximate binding affinities of thyroid hormones and tetrahalogen bisphenols to anti-T4 Fab were determined via initial screening experiments (Figures S1–S7).

[3] = biological target: anti-T4 antibody Fab fragment; assay: Native MS (ESI FT-ICR) direct ligand titration; assay type: binding, mouse; details: 0.005-2.0 μM T2, 0.1 μM Fab
Procedure: All mass spectrometric experiments were performed by using a 12-T Bruker solariX XR Fourier transform ion cyclotron resonance (FT-ICR) instrument (Bruker Daltonics, Bremen, Germany) equipped with an electrospray ionization (ESI) source (Apollo-II). Mass spectra were obtained in a positive ion mode, and the samples were directly infused to the ion source at a flow rate of 2 μL min^–1. Dry nitrogen was used as nebulizing (4.0 L min^–1) and drying (80 °C, 1.0 bar) gas. The ions were accumulated in the hexapole ion trap for 3.5 s and then transferred to the dynamically harmonized ICR cell (Paracell) for trapping, excitation, and detection. The time of flight was set to 3.5 ms. […] The data acquisition was attained by ftmsControl 2.1 software and further processed and analyzed by DataAnalysis 4.2 SR1 software. […]
A direct ligand titration[9],[22],[23] was used to determine the binding constant for the “low-affinity” reference ligand. […] The fractional saturation (Y) of the protein was calculated from the intensity ratio of the protein–ligand complex (PL) and free protein (P) for every single ligand (L) concentration (intensities averaged over different charge states), and the data were fitted into the specific, single-site binding model[24] […] Five replicate samples were prepared and measured for each T2 concentration. […]

[4] = 0.1 μM Fab, 20 mM ammonium acetate pH 6.8, ligand and reference ligand (T2) concentrations per Table 1, mean ± SD, 10 replicates of three samples, read-out: Kd
[5] = T4/T2 0.14/0.5 μM, T3/T2 0.14/0.5 μM, T0/T2 15/0.05 μM, 0.1 μM Fab, read-out: Kd (self-validation at second ligand concentrations)

| SMILES | Kd [1, 4] | Kd [1, 5] | approximate binding affinity [2] | binding affinity (in words) ([1]; anti-T4 Fab) | also measured |
| --- | --- | --- | --- | --- | --- |
| N[C@@H](Cc1cc(I)c(Oc2cc(I)c(O)c(I)c2)c(I)c1)C(=O)O [T4, L-thyroxine] | 0.029 µM | 0.0239 µM | low nanomolar binding affinities |  | Kd (THRα1): 2 nM; affinity relative to T3 (anti-T4 Fab): approximately 10 times |
| CC(C)(c1cc(I)c(O)c(I)c1)c1cc(I)c(O)c(I)c1 [TIB, tetraiodobisphenol-A] | 0.011 µM |  | submicromolar to micromolar affinity range | nanomolar binding affinities |  |
| N[C@@H](Cc1ccc(Oc2ccc(O)cc2)cc1)C(=O)O [T0, L-thyronine] | 130 µM | 174 µM | submicromolar to micromolar affinity range |  | binding affinity relative to T3 ([1]; anti-T4 Fab, native MS Kd values compared): approximately five orders of magnitude lower; Kd ([1]; competition with T2 as reference ligand, as given in the abstract, read-out: Kd): 130 µM |
| CC(C)(c1cc(Cl)c(O)c(Cl)c1)c1cc(Cl)c(O)c(Cl)c1 [TCB, tetrachlorobisphenol-A] | 7.8 µM |  | submicromolar to micromolar affinity range |  | ligand saturation ([2]; ligand added until saturation): saturative binding was not observed even at a molar ligand excess of 200 |
| CC(C)(c1cc(Br)c(O)c(Br)c1)c1cc(Br)c(O)c(Br)c1 [TBB, tetrabromobisphenol-A] | 0.087 µM |  | submicromolar to micromolar affinity range | nanomolar binding affinities |  |
| N[C@@H](Cc1ccc(Oc2ccc(O)c(I)c2)c(I)c1)C(=O)O [T2, 3,3′-diiodo-L-thyronine] |  |  | submicrometer range |  | Kd ([3]; 20 mM ammonium acetate pH 6.8): 260 nM; Kd ([3]; 20 mM ammonium acetate pH 6.8, one-site binding fit, five replicates): 263 nM and 260 nM; binding (anti-T4 Fab; within the Kd range accessible by the technique): did not show any binding |
